Results: article PMC10388327, “Dual Piperidine-Based Histamine H3 and Sigma-1 Receptor Ligands in the Treatment of Nociceptive and Neuropathic Pain” (Journal of Medicinal Chemistry, 2023)
Structures can show the parent of a compound that is named as a salt.

Experiments:
mice [1] = experiment: spontaneous locomotor activity; assay type: in vivo
Protocol: (§1) The high sedative activity of analgesics is considered an undesirable property, which may lead to an incorrect or ambiguous interpretation of the in vivo results. Moreover, it may limit the potential clinical application of new drug candidates.
(§2) This test was carried out according to the procedure described elsewhere.[84] The animals were injected (i.p.) with 12 at doses of 5, 15, and 30 mg/kg and placed in the activity cages individually (30 min before the experiment). The number of light-beam crossings was counted in each group during the next 30 min in 10 min intervals.

[2] = spontaneous locomotor activity; assay type: in vivo, mice; conditions: mouse, in vivo, ip; estimated; read-out: ED50, decrease of spontaneous locomotor activity
Protocol: as §1, §2

mice [3] = experiment: motor coordination in the rotarod test; assay type: in vivo; conditions: 15 mg/kg i.p.; 6, 18 and 24 rpm
Source text: The neurotoxicity of the new compounds can result in impaired motor functions of the experimental animals, which may subsequently cause false interpretation of the results of in vivo tests. Understandably, neurotoxicity is also the frequent reason for eliminating the tested compound from further studies. To minimize that risk, we investigated the influence of our lead structures on motor coordination in the rotarod test, which is the classical test used for assessing motor coordination and balance in rodents. It provides a quick and simple estimation of neuromuscular coordination. […] The time spent on the rotarod apparatus was 60 s for each control mouse.
The test was carried out on the semiautomatic rotarod apparatus (Rotarod apparatus Panlab/Harvard Apparatus, LE 8200, Spain) according to the method previously described in the literature.[85] The mice were trained for 3 days on the rod rotating at a constant speed of 18 rotations per minute (rpm). During each training session, the animals were placed on the rod for 3 min with an unlimited number of trials. On the test day (24 h after the final training trial), 30 min before the rotarod test, the mice were pretreated (i.p.) with the test compound (15 mg/kg). Then, the animals were tested on the rotarod revolving at 6, 18, and then 24 rpm. Motor impairments, defined as the inability to remain on the rotating rod for 1 min, were measured at each speed.

[4] = parallel artificial membrane permeability assay (PAMPA); assay type: in vitro ADME; conditions: 100 μM in PBS pH 7.4, RT, read-out: Pe (permeability coefficient)
mice [5] = experiment: oxaliplatin-induced neuropathy, von Frey test; assay type: in vivo; conditions: for pain threshold after single administration, early phase: 3 h after OXPT; for pain threshold after single administration, late phase: 7 days after OXPT
Protocol: The neuropathy manifests as a decrease in the pain threshold and can be observed in hours or in days after oxaliplatin administration, which is called the early or late phase of neuropathic pain, respectively. We tested the influence of compound 12 on tactile allodynia using the von Frey method 3 h and 7 days after the induction of neuropathy.[12]
Neuropathy was induced by the administration of a single dose (10 mg/kg) of oxaliplatin (OXPT) dissolved in a 5% glucose solution (Polfa Kutno, Poland). To assess the sensitivity to mechanical stimuli, the von Frey test was carried out using the electronic von Frey unit (Bioseb, France). The apparatus was supplied with a single flexible filament, which was used to apply increasing force (from 0 to 10 g) against the plantar surface of the hind paw of the mouse. […] The measurement was done before the OXPT administration and 3 h and 7 days afterward. The compounds were administrated to the animals with tactile allodynia observed as a statistically significant decrease in pain threshold. On the day of the experiment, each mouse was placed in an observation chamber with a wire mesh bottom and was allowed to habituate for 1 h. After the habituation period, the mouse pain threshold was tested three times alternately with at least 30 s gap between each measurement. The mean of these three consecutive measurements was taken as the baseline value. The mice with tactile allodynia were i.p. pretreated with the tested compound, and 30 min later, the animals were tested again according to the same procedure.[92]

CCI-exposed mice = experiment: chronic constriction injury (CCI) of the sciatic nerve, von Frey test; assay type: in vivo, male albino Swiss CD-1 mice
Protocol: Behavioral assessment of 12 was performed 14 days after the sciatic nerve injury. Mice were randomly assigned to four treatment groups: vehicle-treated (i.p.) and 12-treated (5, 10, and 15 mg/kg, i.p.). Baseline measurements (basal) for all tests were performed before compound injections, and the results are presented as percentages of the maximal possible effect (% MPE). We observed a significant effect of the tested compound in the von Frey test at all tested time points (30 min: F(3, 26) = 12.38, p < 0,0001; 90 min: F(3, 26) = 12.65, p < 0.0001; 180 min: F(3, 26) = 6.464, p = 0.0020). […] We also observed a significant effect of treatment on the contralateral paw 90 min after injection (F(3, 26) = 5.741, p = 0.0037).
The model of chronic constriction injury (CCI) to the sciatic nerve was established according to Bennett and Xie.[94] The surgical method was performed under isoflurate anesthesia (2% isoflurane in 100% oxygen with a flow of 1.5 L/min).[95] Below the right hipbone, a small incision was performed, and three ligatures (4/0 silk) around the sciatic nerve were made (with 1 mm spacing) until a brief twitch in the respective hind limb was observed. All mice that underwent the CCI procedure developed hypersensitivity to mechanical and thermal stimuli. Behavioral tests were performed at day 14 after injury. Compound 12 was dissolved in 10% DMSO/10% (2-hydroxypropyl)-β-cyclodextrin/water and administered i.p. at doses 5, 10, and 15 mg/kg (injection volume 10 mL/kg of body weight). The control group received the vehicle (10% DMSO/10% (2-hydroxypropyl)-β-cyclodextrin/water).
Behavioral experiments were performed between 8:00 a.m. and 2:00 p.m. Across the experiments, we compared vehicle-treated mice with 12-treated animals. Experiments were performed 30, 90, and 180 min (von Frey test); 35, 95, and 185 min (cold plate test); and 40, 100, and 190 min (tail flick test) after the vehicle or 12 administration.
The von Frey test was used to measure mechanical hypersensitivity as described in a previous publication.[95] The animals were placed in cages with a wire net floor. The reaction (paw withdrawal, shaking, or licking) of the ipsilateral (Figure 15) and contralateral (Figure S33) paw of CCI-exposed mice to the mechanical stimulator (calibrated nylon monofilaments (0.6–6 g; Stoelting)) in serial increments was observed.

In the case of `N#Cc1ccc(-c2ccc(OCCCN3CCC(c4ccncc4)CC3)cc2)cc1` [Compound 12, 4′-(3-(4-(Pyridin-4-yl)piperidin-1-yl)propoxy)-[1,1′-biphenyl]-4-carbonitrile Oxalate], the “influence on spontaneous locomotor activity (sedative effect)” value (mice [1]; 15 mg/kg i.p.) is reported as “decreased spontaneous locomotor activity, but the effect was not statistically significant”, the “influence on spontaneous locomotor activity (sedative effect)” value (mice [1]; 30 mg/kg i.p.) is reported as “significantly decreased locomotor activity” and the ED50 at 30 min [2] is reported as 22 mg/kg. The “influence on motor coordination, time on rotarod” value (mice [3]) was “slightly affected motor coordination, but the effect was not statistically significant”, the Papp at 5 h, 100 µM [4] was 12 ×10⁻⁶ cm/s and the “pain threshold after single administration, early phase” value (“pain threshold … early phase” below) (mice [5]; 5 mg/kg i.p.) was 88.6 % of the baseline. The “pain threshold … early phase” value (mice [5]; 10 mg/kg i.p.) was 115.0 % of the baseline, the “pain threshold after single administration, late phase” value (mice [5]; 10 mg/kg i.p.) was 99.8 % of the baseline and the “pain threshold … early phase” value (mice [5]; 15 mg/kg i.p.) was 124.3 % of the baseline. For the same molecule, the “pain threshold after single administration, late phase” value (mice [5]; 15 mg/kg i.p.) was 123.7 % of the baseline, the “effect on contralateral paw, von Frey test” value (from here on “effect on contralateral paw”) (CCI-exposed mice; 15 mg/kg, 30 and 180 min) was “reduced the withdrawal threshold 30 and 180 min after injection, although this effect was not statistically significant” and the “effect on contralateral paw” value (CCI-exposed mice; 15 mg/kg, 90 min) was “significant effect (p = 0.0056)”. The “effect on contralateral paw” value (CCI-exposed mice; 5 and 10 mg/kg, all time points) was “no effects of compound 12 (for doses 5 and 10 mg/kg) on tactile allodynia”, the “analgesic effect, von Frey test, ipsilateral paw” value (CCI-exposed mice; 90 and 180 min after i.p. injection) was “only at a dose of 10 mg/kg increased the withdrawal thresholds” and the “analgesic effect, von Frey test, ipsilateral paw” value (CCI-exposed mice; 30 min after i.p. injection, 5, 10, 15 mg/kg, day 14 after CCI) was “significant analgesic effects 30 min after injection of 5 (p < 0.0001) and 10 mg/kg (p = 0.0201)”.
